Assay results as given in a melting point compilation (Tetko et al.; mined from patent text by program, amines drawn as free bases though some values may be those of a salt).

melting point [°C] | Compound
182 to 183 | CC(=O)NC[C@H]1CN(c2ccc(C3CCN(C(=O)CO)CC3)c(F)c2)C(=O)O1
165 to 167 | C=CCNC(=O)NNC(=O)c1cccnc1
260 to 263 | Clc1ccc2nc(-c3ccco3)c(I)n2n1
67 to 69 | CCOC(=O)N1CCC23CCCCC12c1ccccc1CC3 (centres undefined)
194 to 195 | Cc1noc(NC(=O)N2CCN(c3nccc(-c4ccccc4F)n3)CC2)c1C
47 to 48 | Cc1cc2cnccc2s1
205 to 207 | CCCc1c(OCCCCCC(=O)c2ccc3cc(O)c(O)cc3c2)ccc(C(=O)O)c1O
135 to 137 | O=C(O)CCCC(=O)c1cccc([N+](=O)[O-])c1
219 to 220 | CCCCc1nc2c(N)nc3ccc(OCc4ccc(OC(F)(F)F)cc4)cc3c2n1C
74 to 75 | O=C(Cc1ccc(Oc2ccccc2)cc1)NCCC1=CCCCC1
64 to 66 | C=CCC1(C(=O)N2CCCCC2)c2ccccc2-c2ccccc21
142 to 144 | COc1cc(Cl)c(C(=O)Nc2ccc(C(C)(C)C#N)cc2)cc1OC
160 to 162 | CN1CCC(C2c3cccc4c3N(CC4)c3ccccc3N2C(=O)OCC(Cl)(Cl)Cl)CC1 (centres undefined)
157 to 159 | Nc1cc(C(c2cc(F)ccc2F)S(=O)(=O)c2ccc(F)cc2)c(Cl)cn1 (centres undefined)
190 to 191 | CN(C)C(=O)NCCc1cccc(-c2nc(=O)c3ccccc3s2)n1
165 to 168 | NS(=O)(=O)C(F)(F)C(F)(F)C(F)(F)C(F)(F)C(F)(F)C(F)(F)F
> 270 | Cn1c2cc(O)c(O)cc2c2cc(O)c(O)cc21
202 to 203 | Cc1cc(C(=O)c2[nH]c3cc(Cl)ccc3c2NC(=O)CC(C)C)ccc1Cl
131 to 135 | COc1cc(-n2nc3n(c2=S)CCSC3)c(Cl)cc1Cl
242 | CC(=O)OC(c1nc2c(C(F)(F)F)cccc2c(O)c1C(=O)Nc1nccs1)C(C)C (centres undefined)
146 to 147 | O=C1C(Br)=C(c2ccccc2)C(=O)N1Nc1ccccc1
173 to 175 | CCOC(=O)C1=CNC2=C(C(=S)Nc3ccccc3)CCC(C)N2C1=O (centres undefined)
185 | [N-]=[N+]=C1C(=O)Oc2ccc(S(=O)(=O)Cl)cc2C1=O
184 to 185 | COc1cc(C(=O)N2Cc3cccn3Cc3ccccc32)ccc1N
62 to 72 | O=S(=O)(CC1CC=CCO1)c1ccc(Oc2ccc(OC(F)(F)F)cc2)cc1 (centres undefined)

melting point [°C] | Compound
75 to 77 | CC(C)(C)c1cc(Cl)c(O)c(C=O)c1
204 to 207 | Cc1cccc(Nc2cc(Nc3ccc(OCCCN(C)C)cc3)ncn2)c1
161 to 162 | NC(=O)c1c(F)cccc1[N+](=O)[O-]
55 to 61 | CCOC(=O)[C@H]1O[C@@H]1[C@H](Cc1ccccc1)NC(=O)OC(C)(C)C
< 80 | Cn1c(=O)oc2cc(CCCN3CCOCC3)cnc21
234 to 237 | CCc1nc2c(N)nc3cc(CCC(=O)N(C)C)ccc3c2n1CC(C)(C)O
112 | CC(O)COC(c1c(C(C)C)nn2ccccc12)C(C)C (centres undefined)
194 to 199 | CNS(=O)(=O)N=C(NC(=O)OC)C(C)C
135 to 140 | N#Cc1cc(F)c(O)nc1O
133 to 135 | CC(C)N(Cc1ccc(Cl)c(Cl)c1)S(=O)(=O)c1cc2ccccc2s1
121 to 122 | CN(C)Cc1ccc(CSCCNc2nc(C(O)c3ccccc3)nn2C)o1 (centres undefined)
115 to 116 | COC(=O)c1ccc2occ(-c3ccc(SC)c(Cl)c3)c2c1
128 to 130 | CC(F)=C1CCC2C3CC=C4CC(O[Si](C)(C)C(C)(C)C)CCC4(C)C3CCC12C (centres undefined)
137 | CC(=O)OC1CSC(Oc2cccc(-c3ccncc3)n2)C(OC(C)=O)C1OC(C)=O (centres undefined)
112 to 113 | Fc1cccc(CSc2nnc(-c3ccc4occc4c3)o2)c1
252 to 254 | CSc1cccc(CNC(=O)c2nc3scc(COCc4ccc(C(=O)O)cc4)c3c(=O)[nH]2)c1
197 to 199 | CC(Oc1ncn(-c2cccc(Cl)c2)n1)C(=O)O (centres undefined)
205 to 206 | CN1C(=O)CN(c2ccc(F)cc2)NC1=O
132 to 134 | CCc1cc(OCc2ccc(-c3ccccc3C(=O)OC)cc2)c2ccccc2n1
207 to 212 | CC1CC(=O)NN=C1c1ccc2c(c1)N(S(C)(=O)=O)CCO2 (centres undefined)
66 to 68 | CCOC(=O)c1ccc(CCCOCCCCCCNCC(O)c2cc(Cl)c(N)c(Cl)c2)cc1 (centres undefined)
110 to 111 | O=C(CCCCCl)c1cc2c3c(c1)CCN3C(=O)CC2
232 to 234 | CN(Cc1ccc(NC(=O)C2CCS(=O)(=O)c3ccc(OCc4ccc(F)cc4)cc3C2)cc1)C1CCOCC1 (centres undefined)
142 to 145 | CC(=O)Oc1ccc2c(c1)cc(C(=O)O)n2C(C)=O
220 to 221 | CCOCc1nc2c(N)nc3cc(-c4ccncc4)ccc3c2n1CC(C)(C)O

melting point [°C] | Compound
212 to 214 | Cc1ccc(-c2cn(C)cc(-c3ccc(C)cc3)c2=O)cc1
147 | CNc1cc(OC)c(OC)cc1[N+](=O)[O-]
185 to 187 | O=C(O)CC(O)(Cn1cncn1)c1ccc(F)cc1F (centres undefined)
222 to 226 | Cc1c[nH]c2c(=O)n(CC(=O)N[C@H](C=O)CC(=O)O)cnc12
301 to 315 | O=C1c2ccccc2C(=O)N1SN1C(=O)c2ccccc2C1=O
170 to 173 | COc1ccc2c(c1)c1c3c(c(-c4ccccc4)cc1n2CCCCCCO)C(=O)NC3=O
140 to 144 | CC(=O)NC1CC(C)(C)N(OC2CCCCC2)C(C)(C)C1
322 to 327 | Cn1cc(-c2cccc(C#N)c2)c(=O)c(-c2cccc(C#N)c2)c1
74 to 75 | O=C(C#Cc1ccncc1)c1ccccc1
160 to 162 | Clc1ccc(-c2nnc(Br)cc2Br)cc1
193 to 195 | CC(C)C(CS(=O)(=O)c1ccc(-c2cccc(CNC(=O)c3nc4ccccc4c(=O)[nH]3)c2)cc1)N(O)C(N)=O (centres undefined)
120 to 121 | CCc1c(-c2ccc(O)cc2)c2c(COCCCCCN3CCCCC3)cc3c(O)ccc1n32
53 | CCOCCNc1nc(S)nc(N[C@@H](C)c2ccccc2)n1
125 to 128 | COc1ccc(C2CCN(c3c(C)c(C)c4c(c3C)C(O)(c3ccsc3)C(C)(C)O4)CC2)cc1OC (centres undefined)
204 to 206 | Nc1c(-c2ccc(Cl)cc2Cl)nnn1Cc1ccc(S(N)(=O)=O)cc1
218 | O=C(O)c1ccc(OCCCn2ccnc2)cc1
62 to 63 | COC(=O)C(C)(C)CCCOc1ccc(NC(=O)C(C)(C)CCCOc2cc(C)ccc2C)cc1
85 | Oc1ccccc1OCCOCCOc1ccccc1O
262 to 264 | Nc1snc2nc(N3CCCC3)sc12
226 to 233 | COc1cc2c(cc1Nc1ncc(Cl)c(Nc3cc(C(N)=O)ccc3OC)n1)CCN(C(=O)CN(C)C)CC2
171 to 173 | CCOC(=O)c1cn(CC)c2nc(N3CCN(C(=O)OCC)CC3)c(F)cc2c1=O
169 to 171 | O=C(O)c1ccccc1Sc1ccccc1[N+](=O)[O-]
145 to 146 | O=C(Nc1ccc(C(=O)N2CCCCc3ccccc32)cc1)c1ccccc1OCCCCCCN1C(=O)c2ccccc2C1=O
81 to 83 | O=C(O)CCCCCCCNC(=O)C(CS)Cc1ccccc1 (centres undefined)
169 to 172 | C=C(C(=O)O)c1ccc(-c2ccccc2)c(F)c1

melting point [°C] | Compound
305 to 307 | O=c1cc(-c2ccncc2)nc2n1CC(O)CN2CCCc1ccccc1F (centres undefined)
196 to 197 | CC(=O)c1oc2c(sc3ccccc32)c1O
125 to 138 | N#CCc1cccc2c(-c3ccccc3)onc12
97.6 to 98.8 | O=[N+]([O-])c1cccc(Oc2ccc(-c3ccccc3)cc2)c1
97 to 102 | CC(O)CN(CC(C)O)C1CC(C)(C)NC(C)(C)C1 (centres undefined)
272 to 274 | O=C(O)c1ccc(SC(=O)c2ccc(O)c(C34CC5CC(CC(C5)C3)C4)c2)cc1
221 to 222 | Cc1cc(=O)c(OCc2ccccc2)c(C(=O)NC2CCC2)n1C
218 to 220 | O=C1CCC(N2Cc3c(OCc4cc(CN5CCOCC5)on4)cccc3C2=O)C(=O)N1 (centres undefined)
256 to 257 | CC(C)(C)OC(=O)Nc1cc(-c2nnc(CCc3cccc(F)c3)o2)ccn1
41 to 42 | O=C(O)CCCCCCCCCCc1cccs1
80 to 82 | COc1ccc(C(C#N)SC2CCCCC2)cc1OC (centres undefined)
131 to 132 | Cc1cc(C)c2occ(-c3ccccc3)c2c1
> 237 | O=C(O)CN1C(=O)C(=Cc2ccc(Cl)cc2Cl)SC1=S
41 to 44 | CCc1cc([N+](=O)[O-])cc([N+](=O)[O-])c1Cl
141 to 145 | O=C1NC(=O)C(c2c[nH]c3ccccc23)C1c1cc2c3c(ccn3CCC2)c1 (centres undefined)
160 to 166 | CC(C)Cn1c(C(O)c2ccccc2)nc2cnc3ccccc3c21 (centres undefined)
157 to 158 | COc1cccc(C(CN2CCN(c3cncc(Cl)n3)CC2)C2(O)CCCCC2)c1 (centres undefined)
124 to 125 | Cc1cccc(-n2nc(C)cc2-c2ccnc(N)c2)c1
175 to 180 | O=C1N[C@@H](c2ccccc2)[C@H]1O
101 to 104 | O=C(O)Cc1ccc(O)c(Cl)c1
99 to 100 | Cc1sc(-c2ccccc2)nc1COc1ccc(CON=C(CCC(=O)O)c2ccccc2)cc1
107 to 111 | Cc1nc(C(C)O)c[nH]1 (centres undefined)
186 to 188 | COc1nc2ccc(Cl)cc2nc1Sc1nnc(C)s1
192 to 193 | O=c1[nH]c2cc(Cl)cc(OCCNCc3ccccc3)c2[nH]1

Compound | melting point [°C]
COC(=O)c1sccc1-c1cc2c(cc1C)C(C)(C)CCC2(C)C | 89 to 90
O=C(O)CCSC1c2ccccc2COc2ccc(OCc3ccc4ccc(OC(F)F)cc4n3)cc21 (centres undefined) | 180 to 184
CC1CC2C3CCC4=CC(=O)CCC4=C3C=CC2(C)C1O (centres undefined) | 149 to 151
Cc1ccc(N2C(=O)c3nccnc3C2OC(=O)N2CCNCC2)nc1 (centres undefined) | 182
Cc1ccc(N)c(C(=O)c2ccccc2)c1 | 64 to 66
